Test results taken from patent US20240182420A1, “MICROBIOCIDAL ISONICOTINIC AMIDE DERIVATIVES” (SYNGENTA CROP PROTECTION AG, priority 2021, published 2024).

How the values were obtained:
[1] = test system: Glomerella lagenarium syn Colletotrichum lagenarium; experiment: Glomerella lagenarium syn. Colletotrichum lagenarium (anthracnose), liquid culture growth inhibition; format: cell-based; conditions: Colletotrichum orbiculare, PDB nutrient broth, 24° C., 72 hrs, 620 nm, vs untreated control
Description: (§1) Conidia of the fungus from cryogenic storage were directly mixed into nutrient broth (PDB potato dextrose broth). A DMSO solution of the test compounds was placed into a microtiter plate (96-well format) and the nutrient broth containing the fungal spores was added to it. The test plates were incubated at 24° C. and the inhibition of growth was determined photometrically after 72 hrs at 620 nm.

[2] = test system: Botryotinia fuckeliana syn. Botrytis cinerea; experiment: Botryotinia fuckeliana syn. Botrytis cinerea (gray mould), liquid culture growth inhibition; format: cell-based; conditions: PDB nutrient broth, 24° C., 72 hrs, photometric, vs untreated control
Description: as §1, with “hrs.” for “hrs at 620 nm.”

Compound	inhibition of growth at 20 ppm [1] [%]	inhibition of growth at 20 ppm [2] [%]
Cc1ccc(CCNC(=O)c2cc(Cl)ncc2Oc2cccc(C)c2)cc1 [Compound 1.57, 2-chloro-5-(3-methylphenoxy)-N-[2-(p-tolyl)ethyl]pyridine-4-carboxamide]	≥ 80	≥ 80
O=C(NCCc1ccc(Cl)cc1Cl)c1cc(Cl)ncc1Oc1cccc(Cl)c1 [Compound 1.68, 2-chloro-5-(3-chlorophenoxy)-N-[2-(2,4-dichlorophenyl)ethyl]pyridine-4-carboxamide]	≥ 80	≥ 80
O=C(NCCc1ccccc1)c1cc(Cl)ncc1Oc1cccc(C2CC2)c1 [Compound 1.29, 2-chloro-5-(3-cyclopropyl-phenoxy)-N-(2-phenylethyl) pyridine-4-carboxamide]	≥ 80	–
O=C(NCCc1ccc(Cl)cc1)c1cc(Cl)ncc1Oc1cccc(C2CC2)c1 [Compound 1.24, 2-chloro-N-[2-(4-chlorophenyl)ethyl]-5-(3-cyclopropyl-phenoxy)pyridine-4-carboxamide]	≥ 80	≥ 80
N#Cc1cncc(Oc2cccc(C3CC3)c2)c1C(=O)NCC(F)c1ccc(Cl)cc1Cl (stereo not drawn) [Compound 1.97, 3-cyano-5-(3-cyclopropyl-phenoxy)-N-[2-(2,4-dichlorophenyl)-2-fluoro-ethyl]pyridine-4-carboxamide]	≥ 80	–
CCc1cccc(Oc2cnc(Cl)cc2C(=O)NCC(F)c2ccc(Cl)cc2Cl)c1 (stereo not drawn) [Compound 1.66, 2-chloro-N-[2-(2,4-dichlorophenyl)-2-fluoro-ethyl]-5-(3-ethylphenoxy) pyridine-4-carboxamide]	≥ 80	≥ 80
CCOc1cccc(Oc2cnc(Cl)cc2C(=O)NCC(F)c2ccc(Cl)cc2Cl)c1 (stereo not drawn) [Compound 1.65, 2-chloro-N-[2-(2,4-dichlorophenyl)-2-fluoro-ethyl]-5-(3-ethoxyphenoxy) pyridine-4-carboxamide]	≥ 80	–
O=C(NCC(F)c1ccc(Cl)cc1Cl)c1cc(Cl)ncc1Oc1ccc(F)c(F)c1 (stereo not drawn) [Compound 1.62, 2-chloro-N-[2-(2,4-dichlorophenyl)-2-fluoro-ethyl]-5-(3,4-difluorophenoxy) pyridine-4-carboxamide]	–	≥ 80
O=C(N[C@@H]1C[C@@H]1c1ccc(F)cc1)c1cc(Cl)ncc1Oc1cccc(C2CC2)c1 [Compound 1.75, 2-chloro-5-(3-cyclopropyl-phenoxy)-N-[(1R,2R)-2-(4-fluorophenyl)cyclopropyl]pyridine-4-carboxamide]	≥ 80	≥ 80
O=C(NCCc1ccc(Cl)cc1Cl)c1cc(C(F)(F)F)ncc1Oc1cccc(C2CC2)c1 [Compound 1.19, 5-(3-cyclopropyl-phenoxy)-N-[2-(2,4-dichlorophenyl)ethyl]-2-(trifluoromethyl) pyridine-4-carboxamide]	≥ 80	–
Cc1cc(C(=O)NC[C@H](F)c2ccc(Cl)cc2Cl)c(Oc2cccc(C3CC3)c2)cn1 [Compound 1.42, 5-(3-cyclopropyl-phenoxy)-N-[(2R)-2-(2,4-dichlorophenyl)-2-fluoro-ethyl]-2-methyl-pyridine-4-carboxamide]	≥ 80	≥ 80
Cc1cccc(Oc2cnc(Cl)cc2C(=O)NCCc2ccc(Cl)cc2)c1 [Compound 1.47, 2-chloro-N-[2-(4-chlorophenyl)ethyl]-5-(3-methylphenoxy) pyridine-4-carboxamide]	≥ 80	≥ 80
CC(C)=Cc1ncc(Oc2cccc(C3CC3)c2)c(C(=O)NCC(F)c2ccc(Cl)cc2Cl)c1O (stereo not drawn) [Compound 1.89, 5-(3-cyclopropyl-phenoxy)-N-[2-(2,4-dichlorophenyl)-2-fluoro-ethyl]-3-hydroxy-2-(2-methylprop-1-enyl)pyridine-4-carboxamide]	≥ 80	≥ 80
Cc1nccc(C(=O)NCC(F)c2ccc(Cl)cc2Cl)c1Oc1cccc(C2CC2)c1 (stereo not drawn) [Compound 1.12, 3-(3-cyclopropyl-phenoxy)-N-[2-(2,4-dichlorophenyl)-2-fluoro-ethyl]-2-methyl-pyridine-4-carboxamide]	≥ 80	–
O=C(NCC(F)c1ccc(Cl)cc1Cl)c1cc(Cl)ncc1Oc1ccccc1 (stereo not drawn) [Compound 1.67, 2-chloro-N-[2-(2,4-dichlorophenyl)-2-fluoro-ethyl]-5-phenoxy-pyridine-4-carboxamide]	–	≥ 80
Cc1ccc(C(F)(F)CNC(=O)c2cc(Cl)ncc2Oc2cccc(C3CC3)c2)c(C)c1 [Compound 1.76, 2-chloro-5-(3-cyclopropyl-phenoxy)-N-[2-(2,4-dimethylphenyl)-2,2-difluoro-ethyl]pyridine-4-carboxamide]	≥ 80	≥ 80

Compound	inhibition of growth at 20 ppm [1] [%]	inhibition of growth at 20 ppm [2] [%]
COc1ccc(CCNC(=O)c2cc(Cl)ncc2Oc2cccc(C3CC3)c2)cc1OC [Compound 1.26, 2-chloro-5-(3-cyclopropyl-phenoxy)-N-[2-(3,4-dimethoxyphenyl)ethyl]pyridine-4-carboxamide]	≥ 80	–
Cc1cc(C(=O)NCC(F)c2ccc(Cl)cc2Cl)c(Oc2cccc(C3CC3)c2)c(Cl)n1 (stereo not drawn) [Compound 1.17, 2-chloro-3-(3-cyclopropyl-phenoxy)-N-[2-(2,4-dichlorophenyl)-2-fluoro-ethyl]-6-methyl-pyridine-carboxamide]	≥ 80	≥ 80
Cc1cncc(Oc2cccc(C3CC3)c2)c1C(=O)NC[C@@H](F)c1ccc(Cl)cc1Cl [Compound 1.93, 3-(3-cyclopropyl-phenoxy)-N-[(2S)-2-(2,4-dichlorophenyl)-2-fluoro-ethyl]-5-methyl-pyridine-4-carboxamide]	≥ 80	≥ 80
O=C(NCCc1ccccc1Cl)c1cc(Cl)ncc1Oc1cccc(C2CC2)c1 [Compound 1.33, 2-chloro-N-[2-(2-chlorophenyl)ethyl]-5-(3-cyclopropyl-phenoxy)pyridine-4-carboxamide]	≥ 80	–
Cc1cc(C(=O)NCC2(c3ccc(Cl)cc3Cl)CC2)c(Oc2cccc(C3CC3)c2)cn1 [Compound 1.90, 5-(3-cyclopropyl-phenoxy)-N-[[1-(2,4-dichlorophenyl)cyclopropyl]methyl]-2-methyl-pyridine-4-carboxamide]	≥ 80	≥ 80
Cc1ccc(CCNC(=O)c2cc(Cl)ncc2Oc2cccc(C3CC3)c2)c(C)c1 [Compound 1.77, 2-chloro-5-(3-cyclopropyl-phenoxy)-N-[2-(2,4-dimethylphenyl)ethyl]pyridine-4-carboxamide]	≥ 80	≥ 80
COc1ccc(CCNC(=O)c2cc(Cl)ncc2Oc2cccc(C)c2)cc1 [Compound 1.55, 2-chloro-N-[2-(4-methoxyphenyl)ethyl]-5-(3-methylphenoxy) pyridine-4-carboxamide]	–	≥ 80
O=C(NCC(F)(F)c1ccccc1)c1cc(Cl)ncc1Oc1cccc(C2CC2)c1 [Compound 1.71, 2-chloro-5-(3-cyclopropyl-phenoxy)-N-(2,2-difluoro-2-phenyl-ethyl)pyridine-4-carboxamide]	≥ 80	≥ 80
Cc1cccc(Oc2cnc(Cl)cc2C(=O)NCCc2ccccc2Cl)c1 [Compound 1.54, 2-chloro-N-[2-(2-chlorophenyl)ethyl]-5-(3-methylphenoxy) pyridine-4-carboxamide]	–	≥ 80
O=C(NCCc1ccc(Cl)cc1Cl)c1cc(Cl)ncc1Oc1ccccc1 [Compound 1.45, 2-chloro-N-[2-(2,4-dichlorophenyl)ethyl]-5-phenoxy-pyridine-4-carboxamide]	–	≥ 80
Cc1ccc(CCNC(=O)c2cc(Cl)ncc2Oc2cccc(C3CC3)c2)cc1 [Compound 1.53, 2-chloro-5-(3-cyclopropyl-phenoxy)-N-[2-(p-tolyl)ethyl]pyridine-4-carboxamide]	≥ 80	≥ 80
N#Cc1ccc(CCNC(=O)c2cc(Cl)ncc2Oc2cccc(C3CC3)c2)cc1 [Compound 1.34, 2-chloro-N-[2-(4-cyanophenyl)ethyl]-5-(3-cyclopropyl-phenoxy) pyridine-4-carboxamide]	≥ 80	–
O=C(NCCc1ccc(F)cc1)c1cc(Cl)ncc1Oc1cccc(C2CC2)c1 [Compound 1.31, 2-chloro-5-(3-cyclopropyl-phenoxy)-N-[2-(4-fluorophenyl)ethyl]pyridine-4-carboxamide]	≥ 80	–
N#Cc1ccccc1CCNC(=O)c1cc(Cl)ncc1Oc1cccc(C2CC2)c1 [Compound 1.23, 2-chloro-N-[2-(2-cyanophenyl)ethyl]-5-(3-cyclopropyl-phenoxy)pyridine-4-carboxamide]	≥ 80	–
Cc1cccc(Oc2cnc(Cl)cc2C(=O)NCC(F)c2ccc(F)cc2F)c1 (stereo not drawn) [Compound 1.59, 2-chloro-N-[2-(2,4-difluorophenyl)-2-fluoro-ethyl]-5-(3-methylphenoxy) pyridine-4-carboxamide]	–	≥ 80
O=C(NCC(F)(F)c1ccc(F)cc1F)c1cc(Cl)ncc1Oc1cccc(C2CC2)c1 [Compound 1.32, 2-chloro-5-(3-cyclopropyl-phenoxy)-N-[2-(2,4-difluorophenyl)-2,2-difluoro-ethyl]pyridine-4-carboxamide]	≥ 80	≥ 80
